The source of these data is patent US20090162351A1, “Transdiscal administration of inhibitors of p38 MAP kinase” (DePuy Spine, Inc., priority 2007, published 2009).

The assay deals with IL-1β-stimulated PGE2 synthesis in bovine chondrocyte pellets / ARC tissues. Put plainly: Chondrocyte pellet / ARC culture model: Prostaglandin E2 assay. The settings on record: for effect on IL-1β-stimulated PGE2 synthesis (in words): chondrocyte pellet / ARC model; for maximum inhibition of PGE2: bovine ARC tissues, IL-1β; for PGE2 synthesis (in words): diacerein at 5.4 μM, rhein at 0.35 μM, 10 ng/ml IL-1β. It is filed as cell-based. An excerpt:
Calf articular cartilage was obtained from the knee joints of eight to twelve month old animals and was processed within twenty-four hours after sacrifice. After removal of muscle and ligament, the cartilage was kept moist using phosphate buffer solution (PBS) to prevent tissue dehydration, and was aseptically peeled off from subchondral bone with a scalpel, and the cartilage pieces were further minced into smaller pieces (˜0.3-0.5×˜0.2-0.5 cm cubes). […] Chondrocytes were then enzymatically isolated from the tissue by incubation for overnight at 37° C. with gentle agitation in 0.2% collagenase in Dulbecco's modified eagle media (DMEM). After removal of tissue debris by filtration through cell strainer and the residual collagenase by 3× wash in PBS, cells were finally resuspended at a density of 2.5×10^6 cells/ml in chondrocyte medium. A 1 ml aliquot of the cell suspension was dispensed into either a 15 ml Falcon centrifuge tube or a 96 deep-well plate and centrifuged at 2000×g for five minutes. The chondrocyte pellets were incubated at 37° C. in a humidified atmosphere of 5% CO2 for two to three weeks with a medium change every other day.
As an alternative to using calf articular cartilage, a commercial Aliginate Recovered Chondrocytes (ARC) system was also used (Articular Engineering, LLC (Northbrook, Ill.)). Use of the commercial system cut down on labor and time in producing chondrocyte pellet. This system produced cartilaginous tissue in vitro using bovine chondrocytes. The first step consisted of culturing chondrocytes in alginate under conditions optimal for the formation of a cell-associated matrix (CM). The second step allowed these cells with their CM, after recovery, to rapidly form and become integrated into a solid mass of cartilage on a porous insert within two weeks.
Chondrocyte pellets were washed once with 1 ml of Chondrocyte Stimulation Medium and equilibrated in the same medium at room temperature for fifteen to thirty minutes. Compounds were dissolved in H2O, Ethanol or dimethyl sulfoxide (DMSO) (10^−2 M) according to suppliers' instructions and further diluted with Chondrocyte Stimulation Medium to the required concentrations. DMSO concentrations in the culture media should not exceed 1%; this concentration of DMSO has no effect on cartilage proteoglycan metabolism in response to cytokines.
The pellets were first treated with compounds at desired concentrations at 37° C. for one hour and then incubated for three to five days in the absence or presence of 10 ng/ml of IL-1β. At the end of the incubation, media and pellets were harvested and frozen for further analysis. Pellets were also fixed as needed in 4% (w/v) paraformaldehyde in PBS for histology analysis.
Prostaglandin E2 (PGE2) was measured with a STAT-Prostaglandin E2 EIA ELISA kit (Cayman Biochemicals). This assay is based on the competition between PGE2 from 50 μl samples and a PGE2-alkaline phosphatase conjugate for a limited amount of PGE2 monoclonal antibody in a reaction volume of 150 μl at room temperature for one hour. The antibody-PGE2 complex bound to a goat polyclonal anti-mouse IgG that had been previously attached to the well. After washing to remove any unbound reagents, para-nitrophenyl phosphate (pNPP) was added to the well. The product of this enzymatic reaction absorbs strongly at 412 nm. Because of the large range in response to IL-1β and other cytokines, PGE2 values were converted to log scale prior to doing t-tests.
To characterize the relative efficacies among different p38 MAP kinase inhibitors, dose-response curves were generated for both PGE2 and NO assays. […] After one hour of treatment, ARCs were stimulated with or without 7.5 ng/ml IL-1β and continued to incubate for five days before assay. The IL-1β-stimulated PGE2 synthesis or NO production was first calculated by subtraction of PGE2/NO levels in the absence of IL-1β from that in the presence of IL-1β. […]

Where [1] appears, read: Bos taurus, Chondrocyte, 120 h, bovine ARCs, 7.5 ng/ml IL-1β, five days, sigmoidal dose-response fit, read-out: PGE2, IC50.
Where [2] appears, read: Bos taurus, Chondrocyte, Table 3B, read-out: PGE2 Inhibition, Pellet Assay, IC50.
[3] abbreviates: bovine ARCs, 7.5 ng/ml IL-1β, five days, sigmoidal dose-response fit, read-out: PGE2, IC50.

SMILES strings stand for the structures. pIC50: −log10 of the molar value. Read-outs that look alike come from different tables or passages of the source.

Turning to `C[C@H](Nc1nccc(-c2c(-c3ccc(F)cc3)nc3nc(N)ccn23)n1)c1ccccc1` [JNJ 7583979 (RWJ 351958)], the “effect on IL-1β-stimulated PGE2 synthesis (in words)” value (“effect” for short) is “significantly inhibited”. For the setting “Bos taurus, Chondrocyte, at 0.5 μM”, this compound had an inhibition at 0.5 µM of 100%.
Under “Bos taurus, Chondrocyte, at 10 μM”, `CO[C@H]1C[C@@H]2CC[C@@H](C)[C@@](O)(O2)C(=O)C(=O)N2CCCC[C@H]2C(=O)O[C@H]([C@H](C)C[C@@H]2CC[C@@H](O)[C@H](OC)C2)CC(=O)[C@H](C)/C=C(\C)[C@@H](O)[C@@H](OC)C(=O)[C@H](C)C[C@H](C)/C=C/C=C/C=C/1C` [Rapamycin, reference compound] returned an inhibition at 10 µM of 47%.
For `C[C@@H]1CN(Cc2ccc(F)cc2)[C@@H](C)CN1C(=O)c1cc2c(C(=O)C(=O)N(C)C)cn(C)c2cc1Cl` [SCIO-469 (SD 469)], the “maximum inhibition of PGE2” value worked out at 62%. The negative logarithm of the IC50 (pIC50) under setting [1] is 6.97. Moreover, the pIC50 under setting [2] was 7.74. Also, under setting [3], the negative logarithm of the IC50 (pIC50) was 6.97.
In the case of `COc1ccc(-n2nc(CCC(=O)N(C)O)cc2-c2ccc(Cl)cc2)cc1` [Tepoxalin, reference compound], the negative-log IC50 (pIC50) under setting [2] is 5.48.
Turning to `Cc1ccc(C(=O)c2ccc(CC(=O)O)n2C)cc1` [Tolmetin, reference compound], the negative logarithm of the IC50 (pIC50) under setting [2] was 6.17.
For the compound `CC(=O)Oc1cccc2c1C(=O)c1c(OC(C)=O)cc(C(=O)O)cc1C2=O` [Diacerein, reference compound], where the note is “five days”, the “PGE2 synthesis (in words)” value is on record as “no effect”.
Take `C[C@@H]1CN(Cc2ccc(F)cc2)[C@@H](C)CN1C(=O)c1cc2cc(C(=O)C(=O)N(C)C)[nH]c2cc1Cl` [SCIO-282 (SD 282)]: the “maximum inhibition of PGE2” value was 96% and the “effect” value is listed as “inhibited”. Moreover, under setting [3], the pIC50 is 6.23.
For the compound `CC(C(=O)O)c1ccc(C(=O)c2cccs2)cc1` (centres unmarked) [Suprofen, reference compound], under setting [2], the negative-log IC50 (pIC50) is 9.09.
For the compound `OCCC#Cc1nc(-c2ccc(F)cc2)c(-c2ccncc2)n1CCCc1ccccc1` [JNJ 3026582 (RWJ 67657), 4-[4-(4-fluorophenyl)-1-(3-phenylpropyl)-5-(4-pyridinyl)-1H-imidazol-2-yl]-3-butyn-1-ol], the “effect” value was “inhibited”. Also, the negative logarithm of the IC50 (pIC50) under setting [1] is 6.38. Further, under setting [2], the pIC50 was 6.38.
For the compound `CC(=O)N1CCN(c2c(-c3ccncc3)c(-c3ccc(F)cc3)c(C#N)n2C)CC1` [JNJ 17089540 (RWJ 669307)], the pIC50 reads like this: (Table 3B, read-out: PGE2 Inhibition, Pellet Assay, IC50) 4.53; under setting [3], 4.53.
For the compound `O=C(O)c1cc(O)c2c(c1)C(=O)c1cccc(O)c1C2=O` [Rhein, reference compound], for the setting “five days”, the “PGE2 synthesis (in words)” value is “no effect”.

A word on the inhibition: it is how much of the control response was suppressed. A high value points to a response far below the control. What is called pIC50 is the IC50 on a negative log10 scale, so that one unit is a factor of ten.
